Results from patent EP0080271A1, “Indomethacin phenyl ester derivatives, their use, and compositions containing them” (priority 1981, dated 1983).
Like-named read-outs stand apart in the source and are kept apart here.

Legend:
rats [1] = experiment: ulceration activity: ulcer index 5 hours after oral administration; type: in vivo; conditions: sacrificed 5 hours after administration
Procedure: (§1) Secondly, in order to assess ulceration activity, various compounds (listed in Table 2) were administered orally to a group of rats. The animals were sacrificed 5 hours after administration, and the ulcer index was determined. Compounds were also administered orally to a group of rats for 1 week, and the number of intestinal ulcers was determined. The same compounds were administered orally to a group of rats, the ulcer index being determined by observing the stomach 3 hours after administration.

[2] = test system: edema induced by carrageenin in rat; experiment: inhibition of edema induced by carrageenin in rat (hind paw volume); type: in vivo; conditions: oral 1 hour before carrageenin injection; for inhibition (%): 3 hours after injection; for edema (%): hind paw volume 3 hours after injection
Procedure: Firstly, in order to assess anti-inflammatory activity, the inhibition of edema induced by carrageenin in rat was studied. Various compounds (listed in Table 1) were administered orally to a group of rats just 1 hour before a carrageenin injection, and the hind paw volume was measured 3 hours after injection.

[3] = LD50 by oral administration in mice; conditions: mouse, in vivo, mice of the stock ddy
Procedure: LD50 of this compound, determined by means of oral administration in mice of the stock ddy, was 200 mg/kg.

rats [4] = experiment: intestinal ulcers and survival after oral administration for 5 days; type: in vivo; conditions: group of 12 rats, oral for 5 days, daily dose 28 µM; for ulceration (%): percentage of surviving animals with ulcers
Procedure: Each compound listed in Table 5 was administered orally to a group of 12 rats for 5 days, and the number of intestinal ulcers was determined. The degree of ulceration was calculated as a percentage of number of […] surviving animals with respect to the number of surviving animals.

rats [5] = type: in vivo; conditions: group of 10 rats, oral, stomach 24 hours after administration, dose 0.060 mM
Procedure: Each compound listed in Table 6 was administered orally to a group of 10 rats and the ulcer index was determined by observing the stomach 24 hours after administration.

rats [6] = experiment: ulcer index, stomach observed 3 hours after oral administration; type: in vivo; conditions: stomach 3 hours after administration, dose 0.056 mM
Procedure: as §1

rats [7] = experiment: number of intestinal ulcers after oral administration for 1 week; type: in vivo; conditions: oral for 1 week, dose 15 µM
Procedure: as §1

serum esterase = conditions: reported in Ceskoslovenska Farmacie 26 (1977) 6277; cited from earlier work
[8] = versus indomethacin plus salicyl salicylate

SMILES | ulcer index (mm) (rats [1]; dose 0.030 mM) | inhibition (%) ([2]; dose 0.015 mM) | inhibition (%) ([2]; dose 0.030 mM) | edema (%) ([2]; dose 0.015 mM) | edema (%) ([2]; dose 0.030 mM) | number of intestinal ulcers (rats [4]) | ulceration (%) (rats [4]) | further results
COc1ccc2c(c1)c(CC(=O)Oc1ccccc1C(=O)Oc1ccccc1C(=O)OCc1ccccc1)c(C)n2C(=O)c1ccc(Cl)cc1 [Example 4, 2-(2-Benzyloxycarbonylphenyl)oxycarbonylphenyl 1-(p-chlorobenzoyl)-5-methoxy-2-methylindole-3-acetate] | 0.4 ± 0.3 | – | – | – | – | – | – | –
COc1ccc2c(c1)c(CC(=O)Oc1ccccc1C(=O)OC(C)(C)C)c(C)n2C(=O)c1ccc(Cl)cc1 [Example 3, 2-t-Butoxycarbonylphenyl 1-(p-chlorobenzoyl)-5-methoxy-2-methlindole-3-acetate] | 0.2 ± 0.1 | 35.8 | 34.7 | 52.0 ± 7.5 | 52.9 ± 3.6 | – | – | –
CCOC(=O)c1ccccc1OC(=O)Cc1c(C)n(C(=O)c2ccc(Cl)cc2)c2ccc(OC)cc12 [Example 2, 2-Ethoxycarbonylphenyl 1-(p-chlorobenzoyl)-5-methoxy-2-methylindole-3-acetate] | 0.2 ± 0.1 | 31.8 | 34.7 | 53.3 ± 8.7 | 52.9 ± 3.6 | – | – | LD50 [3]: 200 mg/kg
COc1ccc2c(c1)c(CC(=O)OCC(=O)O)c(C)n2C(=O)c1ccc(Cl)cc1 [Acemethacin, reference compound] | – | – | – | – | – | 11.0 | 100 | –
COc1ccc2c(c1)c(CC(=O)O)c(C)n2C(=O)c1ccc(Cl)cc1 [Indomethacin] | 5.9 ± 2.5 | 32.2 | 53.5 | 54.9 ± 6.5 | 37.7 ± 7.2 | – | – | ulcer index (mm) (rats [5]): 26.5 ± 6.2 mm; ulcer index (mm) (rats [1]; dose 21.5 mg/kg (0.060 mM)): 57.9 ± 6.6 mm; number of survival animals (rats [4]): 0
COc1ccc2c(c1)c(CC(=O)Oc1ccccc1C(=O)Oc1ccccc1C(=O)O)c(C)n2C(=O)c1ccc(Cl)cc1 [Example 5, 2-(2-Hydroxycarbonylphenyl)oxycarbonylphenyll-(p-chlorobenzoyl)-5-methoxy-2-methylindole-3-acetate] | 0.6 ± 0.3 | 42.7 | 48.7 | 46.4 ± 4.8 | 41.4 ± 5.3 | 2.4 ± 0.6 | 75 | Ulcer index (rats [6]): 3.7 ± 1.3; inhibition (%) (rats [6]; [8]): 86.0%; number of ulcers (rats [7]): 0.5 ± 2.0; inhibition (%) (rats [7]; [8]): 98.4%
COc1ccc2c(c1)c(CC(=O)Oc1ccccc1C(=O)OCc1ccccc1)c(C)n2C(=O)c1ccc(Cl)cc1 [Example 1, 2-Benzyloxycarbonylphenyll-(p-chlorobenzoyl)-5-methoxy-2-methylindole-3-acetate] | 0.1 ± 0.1 | – | – | – | – | – | – | –
COc1ccc2c(c1)c(CC(=O)Oc1ccccc1C(=O)O)c(C)n2C(=O)c1ccc(Cl)cc1 [Indomethacin salicylic ester, 2-hydroxycarbonylphenyll-(p-chlorobenzoyl)-5-methoxy-2-methylindole-3-acetate] | – | 49.4 | – | 41.0 ± 3.5 | – | 5.0 ± 0.4 | 100 | ulcer index (mm) (rats [5]): 7.1 ± 1.6 mm; inhibition (%) (rats [5]; versus indomethacin): 73.2%; hydrolysis by serum esterase (serum esterase): hydrolysis by serum esterase
